We go through five compounds from PubChem BioAssay AID1259407 (Chemical Carcinogenesis Research Information System (CCRIS), 2018).

“Also recorded” adds a separate entry of the source. Active and inactive are the calls of the source. How the calls were made is not given here.

The test system of the data set is CCRIS mutagenicity, Ames/micronucleus/aberration tests. Put plainly: CCRIS mutagenicity studies.
Setting [1] is: Test System: AMES SALMONELLA TYPHIMURIUM, Strain/Indicator: TA98, Metabolic Activation: NONE, Method: STANDARD PLATE.
[2] abbreviates: Test System: AMES SALMONELLA TYPHIMURIUM, Strain/Indicator: TA100, Metabolic Activation: NONE, Method: STANDARD PLATE.
The mark [3] stands for this setting: Test System: AMES SALMONELLA TYPHIMURIUM, Strain/Indicator: TA100, Metabolic Activation: RAT, LIVER, S-9, AROCLOR 1254, Method: STANDARD PLATE.
The mark [4] stands for this setting: Test System: AMES SALMONELLA TYPHIMURIUM, Strain/Indicator: TA102, Metabolic Activation: NONE, Method: STANDARD PLATE.

With `CCC(CCC(C)=O)COC(=O)CCCCC(=O)O` (configuration not stated), the mutagenic call by setting is: (Test System: AMES SALMONELLA TYPHIMURIUM, Strain/Indicator: TA97, Metabolic Activation: NONE, Method: STANDARD PLATE) “inactive; negative”; (Test System: AMES SALMONELLA TYPHIMURIUM, Strain/Indicator: TA97, Metabolic Activation: RAT, LIVER, S-9, AROCLOR 1254, Method: STANDARD PLATE) “inactive; negative”; (Test System: AMES SALMONELLA TYPHIMURIUM, Strain/Indicator: TA97, Metabolic Activation: RAT, LIVER, S-9, DI(2-ETHYLHEXYL)PHTHALATE, Method: STANDARD PLATE) “inactive; negative”; under setting [1], “inactive; negative”; (Test System: AMES SALMONELLA TYPHIMURIUM, Strain/Indicator: TA98, Metabolic Activation: RAT, LIVER, S-9, AROCLOR 1254, Method: STANDARD PLATE) “inactive; negative”; (Test System: AMES SALMONELLA TYPHIMURIUM, Strain/Indicator: TA98, Metabolic Activation: RAT, LIVER, S-9, DI(2-ETHYLHEXYL)PHTHALATE, Method: STANDARD PLATE) “inactive; negative”. Also, the mutagenic call by setting is: under setting [2], “inactive; negative”; under setting [3], “inactive; negative”; (Test System: AMES SALMONELLA TYPHIMURIUM, Strain/Indicator: TA100, Metabolic Activation: RAT, LIVER, S-9, DI(2-ETHYLHEXYL)PHTHALATE, Method: STANDARD PLATE) “inactive; negative”; under setting [4], “inactive; negative”; (Test System: AMES SALMONELLA TYPHIMURIUM, Strain/Indicator: TA102, Metabolic Activation: RAT, LIVER, S-9, AROCLOR 1254, Method: STANDARD PLATE) “inactive; negative”; (Test System: AMES SALMONELLA TYPHIMURIUM, Strain/Indicator: TA102, Metabolic Activation: RAT, LIVER, S-9, DI(2-ETHYLHEXYL)PHTHALATE, Method: STANDARD PLATE) “inactive; negative”.

Turning to `O=S(=O)(O)NC1CCCCC1`, the mutagenic call by setting is: (Test System: CHINESE HAMSTER OVARY, Strain/Indicator: CHO-K1-BH4 (HGPRT), Metabolic Activation: NONE, Method: STANDARD PLATE) “inactive; negative”; (Test System: CHINESE HAMSTER OVARY, Strain/Indicator: CHO-K1-BH4 (HGPRT), Metabolic Activation: RAT, LIVER, S-9, Method: STANDARD PLATE) “inactive; negative”; (Test System: UDS RODENT HEPATOCYTES, Strain/Indicator: THY INCORP (NON-S-PHASE), Metabolic Activation: NONE, Method: AUTORADIOGRAPHY) “inactive; negative”.

On to `c12c3c4c5c1c1c6c7c2c2c8c3c3c9c4c4c%10c5c5c1c1c6c6c%11c7c2c2c7c8c3c3c8c9c4c4c9c%10c5c5c1c1c6c6c%11c2c2c7c3c3c8c4c4c9c5c1c1c6c2c3c41`, for which the mutagenic call runs as follows: (End Point: In vitro chromosomal aberrations, Test System: Chinese hamster lung (CHL/IU) cells, Metabolic Activation: None) “inactive; negative”; (End Point: In vitro chromosomal aberrations, Test System: Chinese hamster lung (CHL/IU) cells, Metabolic Activation: S-9) “inactive; negative”; (End Point: In vitro micronucleus, Test System: Chinese hamster ovary (CHO) cells, Metabolic Activation: None) “active; positive (material tested was fullerol, c60(oh)24); also recorded: active; positive; actual chemical tested was hydroxyl fullerene c-60”; (End Point: In vitro micronucleus, Test System: Human Hela cells, Metabolic Activation: None) “active; positive (material tested was fullerol, c60(oh)24)”; (End Point: In vitro micronucleus, Test System: Human embryonic kidney 293 (HEK293) cells, Metabolic Activation: None) “inactive; negative; actual chemical tested was hydroxyl fullerene c-60”; (End Point: In vitro micronucleus, Test System: Human embryonic kidney cells (HEK 293), Metabolic Activation: None) “active; positive (material tested was fullerol, c60(oh)24)”. For the same compound, the mutagenic call is, setting by setting: (End Point: In vitro micronucleus, Test System: Human epidermoid-like carcinoma (Hela) cells, Metabolic Activation: None) “inactive; negative; actual chemical tested was hydroxyl fullerene c-60”; (Test System: Ames Salmonella typhimurium, Strain/Indicator: TA98, Metabolic Activation: None, Method: Preincubation) “inactive; negative”; (Test System: Ames Salmonella typhimurium, Strain/Indicator: TA98, Metabolic Activation: S-9, Method: Preincubation) “inactive; negative”; (Test System: Ames Salmonella typhimurium, Strain/Indicator: TA100, Metabolic Activation: None, Method: Preincubation) “inactive; negative”; (Test System: Ames Salmonella typhimurium, Strain/Indicator: TA100, Metabolic Activation: S-9, Method: Preincubation) “inactive; negative”; (Test System: Ames Salmonella typhimurium, Strain/Indicator: TA1535, Metabolic Activation: None, Method: Preincubation) “inactive; negative”. Also, the mutagenic call is, setting by setting: (Test System: Ames Salmonella typhimurium, Strain/Indicator: TA1535, Metabolic Activation: S-9, Method: Preincubation) “inactive; negative”; (Test System: Ames Salmonella typhimurium, Strain/Indicator: TA1537, Metabolic Activation: None, Method: Preincubation) “inactive; negative”; (Test System: Ames Salmonella typhimurium, Strain/Indicator: TA1537, Metabolic Activation: S-9, Method: Preincubation) “inactive; negative”; (Test System: E. coli, Strain/Indicator: WP2 uvrA/pKM101, Metabolic Activation: None, Method: Preincubation) “inactive; negative”; (Test System: E. coli, Strain/Indicator: WP2 uvrA/pKM101, Metabolic Activation: S-9, Method: Preincubation) “inactive; negative”; (Test System: Gpt delta transgenic mouse primary embryo fibroblasts (MEF), Strain/Indicator: Red/gam gene mutants, Metabolic Activation: None, Method: Spi- mutation assay) “active; positive”.

Turning to `Cc1cccc2c1ccc1cc(C(C)C)ccc12`, the mutagenic call by setting is: under setting [2], “inactive; negative”; under setting [3], “inactive; negative”.

As for `CC(C)[C@]12CC(=O)[C@H](C)[C@H]1C2`, the mutagenic call was “inactive; negative” (Test System: AMES SALMONELLA TYPHIMURIUM, Strain/Indicator: TA98, Metabolic Activation: HAMSTER LIVER S-9, AROCLOR 1254, Method: STANDARD PLATE); “inactive; negative” under setting [1]; “inactive; negative” (Test System: AMES SALMONELLA TYPHIMURIUM, Strain/Indicator: TA98, Metabolic Activation: RAT LIVER S-9, AROCLOR 1254, Method: STANDARD PLATE); “inactive; negative” (Test System: AMES SALMONELLA TYPHIMURIUM, Strain/Indicator: TA100, Metabolic Activation: HAMSTER LIVER S-9, AROCLOR 1254, Method: STANDARD PLATE); “inactive; negative” under setting [2]; “inactive; negative” (Test System: AMES SALMONELLA TYPHIMURIUM, Strain/Indicator: TA100, Metabolic Activation: RAT LIVER S-9, AROCLOR 1254, Method: STANDARD PLATE). The mutagenic call reads like this: (Test System: AMES SALMONELLA TYPHIMURIUM, Strain/Indicator: TA102, Metabolic Activation: HAMSTER LIVER S-9, AROCLOR 1254, Method: STANDARD PLATE) “inactive; negative”; under setting [4], “inactive; negative”; (Test System: AMES SALMONELLA TYPHIMURIUM, Strain/Indicator: TA102, Metabolic Activation: RAT LIVER S-9, AROCLOR 1254, Method: STANDARD PLATE) “inactive; negative”; (Test System: AMES SALMONELLA TYPHIMURIUM, Strain/Indicator: TA1535, Metabolic Activation: HAMSTER LIVER S-9, AROCLOR 1254, Method: STANDARD PLATE) “inactive; negative”; (Test System: AMES SALMONELLA TYPHIMURIUM, Strain/Indicator: TA1535, Metabolic Activation: NONE, Method: STANDARD PLATE) “inactive; negative”; (Test System: AMES SALMONELLA TYPHIMURIUM, Strain/Indicator: TA1535, Metabolic Activation: RAT LIVER S-9, AROCLOR 1254, Method: STANDARD PLATE) “inactive; negative”. The mutagenic call reads like this: (Test System: AMES SALMONELLA TYPHIMURIUM, Strain/Indicator: TA1537, Metabolic Activation: HAMSTER LIVER S-9, AROCLOR 1254, Method: STANDARD PLATE) “inactive; negative”; (Test System: AMES SALMONELLA TYPHIMURIUM, Strain/Indicator: TA1537, Metabolic Activation: NONE, Method: STANDARD PLATE) “inactive; negative”; (Test System: AMES SALMONELLA TYPHIMURIUM, Strain/Indicator: TA1537, Metabolic Activation: RAT LIVER S-9, AROCLOR 1254, Method: STANDARD PLATE) “inactive; negative”; (Test System: Mouse lymphoma, Strain/Indicator: L5178Y (tk+/tk-), Metabolic Activation: None, Method: Suspension/plate) “inactive; negative”; (Test System: Mouse lymphoma, Strain/Indicator: L5178Y (tk+/tk-), Metabolic Activation: Rat, Liver, S-9, Aroclor 1254, Method: Suspension/plate) “active; equivocal (previous evaluation positive)”.
